From patent publication US10934250B2, “Process for the preparation of a chelating agent” (TRADE CORPORATION INTERNATIONAL, S.A. UNIPERSONAL, priority 2015, dated 2021)

Assay: Stability constants of Fe3+ chelates by spectrophotometric titration
Format: physicochemical
Conditions: for Stability constant, L + H^+ + Fe^3+ -> FeHL / Stability constant, L + Fe^3+ -> FeL / Stability constant, L + OH^- + Fe^3+ -> FeOHL: chelant agent:Fe^3+ 1:1, I=0.10M (NaCl), titration with 0.1 M NaOH pH 2.7 to 12.0, absorbance at 480 nm; for Stability constant, L + H^+ + Fe^3+ -> FeHL: FeHL predominant at pH <4.0; for Stability constant, L + Fe^3+ -> FeL: FeL predominant at pH 4 to 6.5; for Stability constant, L + OH^- + Fe^3+ -> FeOHL: FeOHL predominant at pH >6.5
Description: Stability constant of the Fe^3+ chelate compound of Example 4 (CRENEAHA) were determined spectrophotometrically by titration of a 2.22·10^−4 M (12.5 mg/L) and I=0.10M (NaCl) with 0.1 M NaOH from a pH of 2.7 to a pH of 12.0 and measuring the absorbance variation at 480 nm.
Stability constant of the Fe^3+ chelate compound of Example 2 (CREMEAHA) were determined spectrophotometrically by titration of a […] (12.5 mg/L) and I=0.10M (NaCl) with 0.1 M NaOH from a pH of 2.7 to a pH of 12.0 and measuring the absorbance variation at 480 nm.
Stability constants were determined minimizing the difference between calculated absorbance and experimental absorbance by varying the stability constants of Fe^3+. Every assay was repeated four times. The stability constant value for each compound is not dependent on the concentration of the solution used to carry out the spectrophotometric titration.

Stability constant, L + H^+ + Fe^3+ -> FeHL | Stability constant, L + Fe^3+ -> FeL | Stability constant, L + OH^- + Fe^3+ -> FeOHL | Stability of the Fe^3+ chelate compared with the Fe^3+ chelate of Example 2 (CREMEAHA) (particularly at high pH) | Compound
33.9 | 28.6 | 21.2 | – | Cc1ccc(O)c(C(NCCO)C(=O)O)c1 (stereo not shown) [CREMEAHA]
37.5 | 33.4 | 26.9 | better stability | Cc1ccc(O)c(C(NCCNCCO)C(=O)O)c1 (stereo not shown) [CRENEAHA]
